Assay results published in the supplement of paper PMC10307832.

Legend:
Assay in all cases: relative viability (nuclei count vs DMSO), 5 days (fraction); higher = more cells survive
[1] = compound: COc1cc2/c(=N/c3ccc(Br)cc3F)nc[nH]c2cc1OCC1CCN(C)CC1 [Vandetanib] + Nc1ncn([C@H]2C[C@H](O)[C@@H](CO)O2)c(=O)n1 [Decitabine] (partner 2 µM)
Outline: (§1)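 Five library-drug doses in √10 steps were combined with a fixed anchor-drug dose, or a single drug was given alone, by pin tool to lung cancer cell lines in 1536-well plates the day after seeding. Nuclei were stained and counted after 5 days. Relative viability is the nuclei count in treated wells over that in vehicle wells, taken as the median of duplicate plates.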

[2] = compound: C1=CC=C2C(=C1)N=C(S2)C(C#N)C3=NC(=NC=C3)NCCC4=CN=CC=C4 + COc1cccc2cc(-c3nc([C@H]4CC[C@H](C(=O)O)CC4)n4ncnc(N)c34)[nH]c12 [OSI-027] (partner 0.5 µM)
Outline: as §1

[3] = compound: COc1cc2/c(=N/c3ccc(Br)cc3F)nc[nH]c2cc1OCC1CCN(C)CC1 [Vandetanib] + CS(=O)(=O)CCNCc1ccc(-c2ccc3ncnc(Nc4ccc(OCc5cccc(F)c5)c(Cl)c4)c3c2)o1 [Lapatinib] (partner 2 µM)
Outline: as §1

[4] = compound: C1=CC=C2C(=C1)N=C(S2)C(C#N)C3=NC(=NC=C3)NCCC4=CN=CC=C4 + O=C(CCCCCCC(=O)Nc1ccccc1)NO [Vorinostat] (partner 1 µM)
Outline: as §1

Cell Line: NCI-H1993
- relative viability ([1]; first compound 0.02 µM): 0.674
- relative viability ([1]; first compound 0.06325 µM): 0.645
- relative viability ([1]; first compound 0.2 µM): 0.628
- relative viability ([1]; first compound 0.6325 µM): 0.637
- relative viability ([1]; first compound 2 µM): 0.541
- relative viability ([2]; first compound 0.005 µM): 0.579
- relative viability ([2]; first compound 0.01581 µM): 0.555
- relative viability ([2]; first compound 0.05 µM): 0.637
- relative viability ([2]; first compound 0.1581 µM): 0.626
- relative viability ([2]; first compound 0.5 µM): 0.585
- relative viability ([3]; first compound 0.02 µM): 0.728
- relative viability ([3]; first compound 0.06325 µM): 0.801
- relative viability ([3]; first compound 0.2 µM): 0.663
- relative viability ([3]; first compound 0.6325 µM): 0.923
- relative viability ([3]; first compound 2 µM): 0.786
- relative viability ([4]; first compound 0.005 µM): 0.66
- relative viability ([4]; first compound 0.01581 µM): 0.717
- relative viability ([4]; first compound 0.05 µM): 0.638
- relative viability ([4]; first compound 0.1581 µM): 0.837
- relative viability ([4]; first compound 0.5 µM): 0.501

Cell Line: NCI-H2009
- relative viability ([1]; first compound 0.02 µM): 0.359
- relative viability ([1]; first compound 0.06325 µM): 0.394
- relative viability ([1]; first compound 0.2 µM): 0.369
- relative viability ([1]; first compound 0.6325 µM): 0.371
- relative viability ([1]; first compound 2 µM): 0.325
- relative viability ([2]; first compound 0.005 µM): 0.649
- relative viability ([2]; first compound 0.01581 µM): 0.547
- relative viability ([2]; first compound 0.05 µM): 0.564
- relative viability ([2]; first compound 0.1581 µM): 0.726
- relative viability ([2]; first compound 0.5 µM): 0.603
- relative viability ([3]; first compound 0.02 µM): 0.848
- relative viability ([3]; first compound 0.06325 µM): 0.887
- relative viability ([3]; first compound 0.2 µM): 1.04
- relative viability ([3]; first compound 0.6325 µM): 0.981
- relative viability ([3]; first compound 2 µM): 1.06
- relative viability ([4]; first compound 0.005 µM): 0.727
- relative viability ([4]; first compound 0.01581 µM): 0.677
- relative viability ([4]; first compound 0.05 µM): 0.729
- relative viability ([4]; first compound 0.1581 µM): 0.735
- relative viability ([4]; first compound 0.5 µM): 0.738

Cell Line: NCI-H2023
- relative viability ([1]; first compound 0.02 µM): 0.235
- relative viability ([1]; first compound 0.06325 µM): 0.183
- relative viability ([1]; first compound 0.2 µM): 0.225
- relative viability ([1]; first compound 0.6325 µM): 0.253
- relative viability ([1]; first compound 2 µM): 0.204
- relative viability ([2]; first compound 0.005 µM): 0.285
- relative viability ([2]; first compound 0.01581 µM): 0.418
- relative viability ([2]; first compound 0.05 µM): 0.31
- relative viability ([2]; first compound 0.1581 µM): 0.355
- relative viability ([2]; first compound 0.5 µM): 0.275
- relative viability ([3]; first compound 0.02 µM): 0.814
- relative viability ([3]; first compound 0.06325 µM): 0.694
- relative viability ([3]; first compound 0.2 µM): 0.763
- relative viability ([3]; first compound 0.6325 µM): 0.943
- relative viability ([3]; first compound 2 µM): 0.854
- relative viability ([4]; first compound 0.005 µM): 0.566
- relative viability ([4]; first compound 0.01581 µM): 1.09
- relative viability ([4]; first compound 0.05 µM): 0.454
- relative viability ([4]; first compound 0.1581 µM): 0.763
- relative viability ([4]; first compound 0.5 µM): 0.607

Cell Line: NCI-H2085
- relative viability ([1]; first compound 0.02 µM): 0.536
- relative viability ([1]; first compound 0.06325 µM): 0.522
- relative viability ([1]; first compound 0.2 µM): 0.525
- relative viability ([1]; first compound 0.6325 µM): 0.471
- relative viability ([1]; first compound 2 µM): 0.574
- relative viability ([2]; first compound 0.005 µM): 0.675
- relative viability ([2]; first compound 0.01581 µM): 0.738
- relative viability ([2]; first compound 0.05 µM): 0.57
- relative viability ([2]; first compound 0.1581 µM): 0.931
- relative viability ([2]; first compound 0.5 µM): 0.663
- relative viability ([3]; first compound 0.02 µM): 0.749
- relative viability ([3]; first compound 0.06325 µM): 0.706
- relative viability ([3]; first compound 0.2 µM): 0.837
- relative viability ([3]; first compound 0.6325 µM): 0.868
- relative viability ([3]; first compound 2 µM): 0.748
- relative viability ([4]; first compound 0.005 µM): 0.726
- relative viability ([4]; first compound 0.01581 µM): 0.737
- relative viability ([4]; first compound 0.05 µM): 0.781
- relative viability ([4]; first compound 0.1581 µM): 0.826
- relative viability ([4]; first compound 0.5 µM): 0.903

Cell Line: NCI-H2087
- relative viability ([1]; first compound 0.02 µM): 0.364
- relative viability ([1]; first compound 0.06325 µM): 0.379
- relative viability ([1]; first compound 0.2 µM): 0.281
- relative viability ([1]; first compound 0.6325 µM): 0.286
- relative viability ([1]; first compound 2 µM): 0.233
- relative viability ([2]; first compound 0.005 µM): 0.557
- relative viability ([2]; first compound 0.01581 µM): 0.629
- relative viability ([2]; first compound 0.05 µM): 0.495
- relative viability ([2]; first compound 0.1581 µM): 0.548
- relative viability ([2]; first compound 0.5 µM): 0.483
- relative viability ([3]; first compound 0.02 µM): 0.894
- relative viability ([3]; first compound 0.06325 µM): 0.916
- relative viability ([3]; first compound 0.2 µM): 0.988
- relative viability ([3]; first compound 0.6325 µM): 1.06
- relative viability ([3]; first compound 2 µM): 1.08
- relative viability ([4]; first compound 0.005 µM): 0.338
- relative viability ([4]; first compound 0.01581 µM): 0.666
- relative viability ([4]; first compound 0.05 µM): 0.353
- relative viability ([4]; first compound 0.1581 µM): 1
- relative viability ([4]; first compound 0.5 µM): 0.435

Cell Line: NCI-H2126
- relative viability ([1]; first compound 0.02 µM): 0.537
- relative viability ([1]; first compound 0.06325 µM): 0.551
- relative viability ([1]; first compound 0.2 µM): 0.592
- relative viability ([1]; first compound 0.6325 µM): 0.576
- relative viability ([1]; first compound 2 µM): 0.552
- relative viability ([2]; first compound 0.005 µM): 0.739
- relative viability ([2]; first compound 0.01581 µM): 0.676
- relative viability ([2]; first compound 0.05 µM): 0.732
- relative viability ([2]; first compound 0.1581 µM): 0.705
- relative viability ([2]; first compound 0.5 µM): 0.677
- relative viability ([3]; first compound 0.02 µM): 0.698
- relative viability ([3]; first compound 0.06325 µM): 0.747
- relative viability ([3]; first compound 0.2 µM): 0.805
- relative viability ([3]; first compound 0.6325 µM): 0.724
- relative viability ([3]; first compound 2 µM): 0.768
- relative viability ([4]; first compound 0.005 µM): 0.637
- relative viability ([4]; first compound 0.01581 µM): 0.75
- relative viability ([4]; first compound 0.05 µM): 0.701
- relative viability ([4]; first compound 0.1581 µM): 0.855
- relative viability ([4]; first compound 0.5 µM): 0.647

Cell Line: NCI-H2170
- relative viability ([1]; first compound 0.02 µM): 0.44
- relative viability ([1]; first compound 0.06325 µM): 0.478
- relative viability ([1]; first compound 0.2 µM): 0.472
- relative viability ([1]; first compound 0.6325 µM): 0.458
- relative viability ([1]; first compound 2 µM): 0.455
- relative viability ([2]; first compound 0.005 µM): 0.687
- relative viability ([2]; first compound 0.01581 µM): 0.653
- relative viability ([2]; first compound 0.05 µM): 0.718
- relative viability ([2]; first compound 0.1581 µM): 0.698
- relative viability ([2]; first compound 0.5 µM): 0.706
- relative viability ([3]; first compound 0.02 µM): 0.264
- relative viability ([3]; first compound 0.06325 µM): 0.253
- relative viability ([3]; first compound 0.2 µM): 0.225
- relative viability ([3]; first compound 0.6325 µM): 0.271
- relative viability ([3]; first compound 2 µM): 0.269
- relative viability ([4]; first compound 0.005 µM): 0.756
- relative viability ([4]; first compound 0.01581 µM): 0.86
- relative viability ([4]; first compound 0.05 µM): 0.777
- relative viability ([4]; first compound 0.1581 µM): 0.887
- relative viability ([4]; first compound 0.5 µM): 0.877

Cell Line: NCI-H2347
- relative viability ([1]; first compound 0.02 µM): 0.595
- relative viability ([1]; first compound 0.06325 µM): 0.525
- relative viability ([1]; first compound 0.2 µM): 0.685
- relative viability ([1]; first compound 0.6325 µM): 0.619
- relative viability ([1]; first compound 2 µM): 0.568
- relative viability ([2]; first compound 0.005 µM): 0.454
- relative viability ([2]; first compound 0.01581 µM): 0.394
- relative viability ([2]; first compound 0.05 µM): 0.39
- relative viability ([2]; first compound 0.1581 µM): 0.58
- relative viability ([2]; first compound 0.5 µM): 0.408
- relative viability ([3]; first compound 0.02 µM): 0.972
- relative viability ([3]; first compound 0.06325 µM): 0.701
- relative viability ([3]; first compound 0.2 µM): 0.913
- relative viability ([3]; first compound 0.6325 µM): 0.964
- relative viability ([3]; first compound 2 µM): 0.89
- relative viability ([4]; first compound 0.005 µM): 0.578
- relative viability ([4]; first compound 0.01581 µM): 0.524
- relative viability ([4]; first compound 0.05 µM): 0.551
- relative viability ([4]; first compound 0.1581 µM): 0.72
- relative viability ([4]; first compound 0.5 µM): 0.558
